Measured values reported in patent US20190225941A1, “MODULATION OF FUNCTION OF IMMUNE EFFECTOR CELLS” (OSLO UNIVERSITETSSYKEHUS HF, priority 2016, published 2019).
Entries after “also recorded” stand apart in the source; their conditions may differ. Peptide text beside a SMILES is read from it. * marks the point of attachment. βNA = c1ccc2cc(N*)ccc2c1

Tests used:
NK cells [1] = test: Degranulation (CD107a) and intracellular IFN-γ functional assay, NK cells stimulated with K562 target cells; assay type: cell-based, human; conditions: for IFN-γ response to K562 cells / degranulation (CD107a) in response to K562 cells: 5 h, 1:1 ratio, GPN 50 μM, mefloquine 10 μM, siramesine 10 μM, vacuolin-1 10 μM
Protocol: (§1) Functional assays were performed at 37° C. in complete medium (RPMI+10% FCS) for the times indicated. Purified NK cells were incubated with K562 target cells for 5 hours at a ratio of 1:1 in the presence of anti-CD107a-FITC (biolegend) for degranulation assays, or with the addition of Brefeldin A (GolgiPlug BD) for degranulation plus intracellular cytokine assays. Treatment with lysosomotropic reagents were performed for the duration of the assay using the following final concentrations; glycyl-L-phenylalanine-β-naphthylamide (GPN, 50 μM), mefloquine (10 μM), siramesine (10 μM), vacuolin-1 (10 μM). Stimulation with PMA (1 μg/mL) and ionomycin (0.5 μM), or with thapsigargin (1 μM) and/or U18666a (2 μg/mL) were performed for the times indicated, and the cells were stained for CD107a surface expression post-stimulation.

primary NK cells [2] = test: Phospho-flow cytometry after CD16 ligation; assay type: cell-based, human; conditions: 1 h pre-treatment, GPN 50 μM or vacuolin-1 10 μM
Protocol: Functional assays for phospho-flow cytometry were performed at 37° C. in complete medium in NK cell suspensions between 5-10 M/mL for 20 min. Cells were pre-treated for 1 h using GPN (50 μM) or vacuolin-1 (10 μM), after which biotinylated CD16 (Biolegend, clone 3G8) was added to final concentrations of 5 μg/mL each. After 1 min, the aliquot for the 0 min (unstimulated) sample was taken out and mixed with Fix Buffer I (BD Biosciences). After one additional minute, the stimulation was started by crosslinking the biotinylated antibodies via 50 μg/mL avidin (Thermo Fischer Scientific) and the aliquots for the 5 min, 10 min and 20 min samples were transferred into Fix Buffer I (BD bioscience) at the corresponding time points. Cells were fixed at 37° C. for 10 min, washed and re-suspended in PBS. To allow combination of the differently stimulated samples into one, two dimensional fluorescent cell barcoding (FCB) was utilized. Samples were stained in distinct concentrations of amine-reactive pacific blue succinimidyl ester (Thermo Fisher Scientific) for the time points (0 min-0.69 ng/mL, 5 min-6.25 ng/mL, 10 min-25 ng/mL and 20 min-100 ng/mL) in combination with amine-reactive pacific orange succinimidyl ester (Thermo Fisher Scientific) for the different stimulations (control—10 ng/mL, GPN—100 ng/mL and vacuolin-1-500 ng/mL). After 20 min at RT, samples were washed twice in wash solution (PBS supplemented with 1% FCS and 0.09% sodium azide), combined, permeabilized (Perm Buffer III, BD Biosciences) and stored at −80° C. For thawing, samples were incubated 20 min on ice. Then, they were washed in wash solution and stained with Alexa Fluor 647-conjugated phospho epitope-specific antibodies against ZAP70/syk (pY319/pY352), Lck (pY505), Erk1/2 (pT202/pY204) (BD Bioscience), NF-κB p65 (pS536) (Cell Signaling Technologies) or isotype control IgG1K (BD Biosciences) for 30 min at RT. After washing data was acquired on an LSR Fortessa (BD Biosciences) and analysed in with FlowJo v10.0.8 (TreeStar).

NK cells [3] = test: CD107a mobilization after PMA/Ionomycin stimulation; assay type: cell-based, human; conditions: indicated doses of GPN, FIG. 14D-E
Protocol: as §1

NK cells [4] = test: Viability of NK cells exposed to lysosomotropic compounds; assay type: cell-based, human; conditions: at the doses tested, FIG. 15A
NK cells [5] = conditions: positive control, known property; cited from earlier work
NK cells [6] = test: Granzyme B expression by flow cytometry after IL-15 or IL-21 stimulation with or without signalling inhibitors; assay type: cell-based, human
From the text: Isolated PBMC were stained for flow cytometric analysis using an appropriate combination of the following antibodies, followed by the name of the clone in brackets: CD14-V500 (M5E2), CD19-V500 (HIB19), CD3-V500 (UCHT1), CD56 ECD (N901) CD57-PB (HCD57), CD57 purified (TB01), anti-mouse-IgM-EF650 (II/41), NKG2A-PE, APC or APC.AF750 (Z199), CD16-BV785 (3G8), KIR2DL3-FITC, KIR2DL1-APC or APC-Vio770 (REA284), KIR3DL1-AF700 or BV421 (D×9), KIR2DS4-QD585 (1847), KIR3DL2-biotin (D×31), KIR2DL2/L3/S2-PE.Cy5.5 (GL183), KIR2DL1/S1-PE.Cy7 (EB6) or PE-Vio770 (11 PB6). Dead cells were labelled using live/dead aqua (Life technologies). Biotin-conjugated antibodies were visualized using streptavidin-Qdot 585 or 605 (Life technologies). After surface staining, cells were fixed and permeabilized using a fixation/permeabilization kit (BD Bioscience Cytofix/Cytoperm) prior to intracellular staining with anti-granzyme B-A700 (GB11). Samples were acquired using an LSRII flow cytometer (Becton Dickinson) and data was analysed using FlowJo V10.0.8 (TreeStar).

primary NK cells [7] = test: Confocal imaging of primary NK cells exposed to PIKfyve inhibitors (LAMP-1 / granzyme B staining); assay type: cell-based, human; conditions: for secretory lysosome size: 1 μM overnight, LAMP-1 staining, FIG. 10
Protocol: Sorted NK cells were prepared for confocal microscopy using fixation/permeabilization (BD Bioscience Cytofix/Cytoperm) prior to intracellular staining with mouse anti-human granzyme B-A647 (GB11), rabbit anti-human pericentrin (Ab4448) followed by Donkey anti-Rabbit IgG Alexa555 and donkey anti-mouse-A568. After staining, the fixed cells were adhered to glass cover slips using Cell Tak (Corning) and mounted using Pro-long Gold Antifade with DAPI. The cells were examined with a Zeiss LSM 710 confocal microscope (Carl Zeiss Microlmaging GmbH) equipped with an Ar-Laser Multiline (458/488/514 nm), a DPSS-561 10 (561 nm), a Laser diode 405-30 CW (405 nm), and a HeNe-laser (633 nm). The objective used was a Zeiss plan-Apochromat 63×NA/1.4 oil DICII. Image processing and analysis were performed with basic software ZEN 2011 (Carl Zeiss Microlmaging GmbH) and Imaris 7.7.2 (Bitplane AG). Confocal z-stacks were deconvolved using Huygens Essential 14.06 (Scientific Volume Imaging b.v.), and visualized with Imaris.
Cells were surface-stained with anti-human HLA-ABC antibody (W6/32, BioLegend) prior to settlement on CelITak-coated slides for 20 minutes, followed by fixation with 4% paraformaldehyde. Intracellular staining was performed by incubation with anti-human LAMP-1 (Ab24170, Abcam) for 4h, followed by donkey anti-rabbit-A488 antibody (abcam) and donkey anti-mouse-A568 antibody (Abcam) and Hoechst33342.
Where indicated, cells were stained with mouse anti-human granzyme B-A647 (GB11) instead of anti-HLA-ABC, followed by donkey anti-mouse-A568.

NCC(=O)N[C@@H](Cc1ccccc1)C(=O)Nc1ccc2ccccc2c1 [GPN, glycyl-L-phenylalanine-beta-naphthylamide] (H-Gly-Phe-βNA)
IFN-γ response to K562 cells (NK cells [1]): reduced corresponding IFN-γ expression
degranulation (CD107a) in response to K562 cells (NK cells [1]): abrogate specific degranulation
propagation of down-stream signals, in particular NF-κB (primary NK cells [2]): decreased
upstream signalling (ZAP70 and Lck phosphorylation) following ligation of CD16 (primary NK cells [2]): minimal effect
threshold for PMA/I-induced activation in self-specific NK cells (NK cells [3]): reversed the higher threshold for PMA/I-induced activation
general cellular toxicity (NK cell viability) (NK cells [4]): none of these compounds showed any general cellular toxicity

COC(=O)[C@H](CC(C)C)NC(=O)[C@@H](N)CC(C)C [LeuLeuOMe, L-Leucyl-L-leucine methyl ester]
induction of apoptosis in immune cells (NK cells [5]): known to induce apoptosis in immune cells

OC(c1cc(C(F)(F)F)nc2c(C(F)(F)F)cccc12)C1CCCCN1 (stereo not shown) [Mefloquine]
general cellular toxicity (NK cell viability) (NK cells [4]): none of these compounds showed any general cellular toxicity

Fc1ccc(-n2cc(CCCCN3CCC4(CC3)OCc3ccccc34)c3ccccc32)cc1 [Siramesine]
general cellular toxicity (NK cell viability) (NK cells [4]): none of these compounds showed any general cellular toxicity

CCC(=O)N1CCN(c2ccc(-n3c(=O)ccc4cnc5ccc(-c6cnc7ccccc7c6)cc5c43)cc2C(F)(F)F)CC1 [Torin-1]
cytokine-induced increase in granzyme B (NK cells [6]; 24 h IL-15 or IL-21, self- and non-self-specific NK cells): reversed the cytokine-induced increase in granzyme B
pre-existing constitutive levels of granzyme B (NK cells [6]; before cytokine stimulation, FIG. 6): did not further reduce

Cc1cccc(/C=N/Nc2cc(N3CCOCC3)nc(OCCc3ccccn3)n2)c1 [apilimod]
secretory lysosome size (primary NK cells [7]): increase in secretory lysosome size

Ic1cccc(/C=N/Nc2nc(N3CCOCC3)nc(N(c3ccccc3)c3ccccc3)n2)c1 [vacuolin-1]
IFN-γ response to K562 cells (NK cells [1]): enhanced
degranulation (CD107a) in response to K562 cells (NK cells [1]): enhanced
NK cell function, compound alone (NK cells [1]; resting NK cells, no target cell stimulation): had no effect
propagation of down-stream signals, in particular NF-κB (primary NK cells [2]): increased
upstream signalling (ZAP70 and Lck phosphorylation) following ligation of CD16 (primary NK cells [2]): minimal effect
secretory lysosome size (primary NK cells [7]): increase in secretory lysosome size
clustering of granzyme B within secretory lysosomes (primary NK cells [7]; vacuolin-1 treatment, FIG. 11): clustering of Granzyme B inside the secretory lysosomes; also recorded: cause granzyme B to cluster within the large secretory lysosomes formed

IL-15: cytokine used to prime NK cells
granzyme B response to cytokine priming, CD56bright NK cells (NK cells [6]; CD56bright NK cells): responded to priming by IL-15
granzyme B response to cytokine stimulation, CD56dim NK cells (NK cells [6]): increases in the level of granzyme B

IL-21: cytokine used to prime NK cells
granzyme B response to cytokine stimulation, CD56dim NK cells (NK cells [6]): increases in the level of granzyme B
